Test results taken from US20110028686A1, “Protein binding miniature proteins” (Yale University, priority 2000, published 2011).
Values joined by “and” are separate entries in the source; they are usually repeats but may differ in a detail not shown here. Equal values may be shown once. Read-outs that look alike come from different tables or passages of the source. Ends that are not written are not given here. Peptide text beside a SMILES is read from it.

Assays:
CBP KIX LL652-3AA = target: T1, CBP KIX LL652-3AA (Mus musculus, UniProt P45481, L652A/L653A); assay: Equilibrium fluorescence polarization, CBP KIX variant LL652-3AA; format: binding; conditions: 25° C.
T1 construct: made in house; host or cells: E. coli BL21(DE3) pArg
T1 sequence (P45481 586-665 L652A/L653A): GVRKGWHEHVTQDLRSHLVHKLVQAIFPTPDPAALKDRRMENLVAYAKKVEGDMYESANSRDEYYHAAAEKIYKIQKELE

Carbonic anhydrase II [1] = target: T2, Carbonic anhydrase II (Homo sapiens, UniProt P00918); assay: Fluorescence polarization specificity, carbonic anhydrase II; format: binding; conditions: carbonic anhydrase II as target protein; read-out: Kd CA
T2 construct: purchased Sigma
Source text: (§1) Given the myriad protein surfaces present in the cell, the utility of molecules that recognize protein surfaces will depend on their ability to interact selectively with the desired protein.

CBP KIX K662A = target: T3, CBP KIX K662A (Mus musculus, UniProt P45481, K662A); assay: Equilibrium fluorescence polarization, CBP KIX variant K662A; format: binding; conditions: 25° C.
T3 construct: made in house; host or cells: E. coli BL21(DE3) pArg
T3 sequence (P45481 586-665 K662A limits assumed): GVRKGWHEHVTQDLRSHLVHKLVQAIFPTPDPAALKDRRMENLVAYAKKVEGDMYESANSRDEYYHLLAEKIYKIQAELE

CBP KIX Y658F = target: T4, CBP KIX Y658F (Mus musculus, UniProt P45481, Y658F); assay: Equilibrium fluorescence polarization, CBP KIX variant Y658F; format: binding; conditions: 25° C.
T4 construct: made in house; host or cells: E. coli BL21(DE3) pArg
T4 sequence (P45481 586-665 Y658F limits assumed): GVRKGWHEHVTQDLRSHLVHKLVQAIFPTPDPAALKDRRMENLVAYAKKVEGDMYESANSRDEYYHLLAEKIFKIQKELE

CBP KIX L603A = target: T5, CBP KIX L603A (Mus musculus, UniProt P45481, L603A); assay: Equilibrium fluorescence polarization, CBP KIX variant L603A; format: binding; conditions: 25° C.
T5 construct: made in house; host or cells: E. coli BL21(DE3) pArg
T5 sequence (P45481 586-665 L603A limits assumed): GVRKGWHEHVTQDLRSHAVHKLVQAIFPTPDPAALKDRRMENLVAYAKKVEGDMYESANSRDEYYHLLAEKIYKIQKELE

CBP KIX K606A = target: T6, CBP KIX K606A (Mus musculus, UniProt P45481, K606A); assay: Equilibrium fluorescence polarization, CBP KIX variant K606A; format: binding; conditions: 25° C.
T6 construct: made in house; host or cells: E. coli BL21(DE3) pArg
T6 sequence (P45481 586-665 K606A limits assumed): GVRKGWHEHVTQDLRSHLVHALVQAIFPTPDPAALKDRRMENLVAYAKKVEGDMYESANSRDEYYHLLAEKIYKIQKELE

Calmodulin [2] = target: T7, Calmodulin (Homo sapiens, UniProt P0DP23); assay: Fluorescence polarization specificity, calmodulin; format: binding; conditions: calmodulin as target protein; read-out: Kd CalM
T7 construct: purchased Sigma
Source text: as §1

CBP KIX Y658A = target: T8, CBP KIX Y658A (Mus musculus, UniProt P45481, Y658A); assay: Equilibrium fluorescence polarization, CBP KIX variant Y658A; format: binding; conditions: 25° C.
T8 construct: made in house; host or cells: E. coli BL21(DE3) pArg
T8 sequence (P45481 586-665 Y658A limits assumed): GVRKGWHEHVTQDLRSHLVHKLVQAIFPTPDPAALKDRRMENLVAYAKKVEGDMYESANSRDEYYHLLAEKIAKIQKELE

CBP KIX I660A = target: T9, CBP KIX I660A (Mus musculus, UniProt P45481, I660A); assay: Equilibrium fluorescence polarization, CBP KIX variant I660A; format: binding; conditions: 25° C.
T9 construct: made in house; host or cells: E. coli BL21(DE3) pArg
T9 sequence (P45481 586-665 I660A limits assumed): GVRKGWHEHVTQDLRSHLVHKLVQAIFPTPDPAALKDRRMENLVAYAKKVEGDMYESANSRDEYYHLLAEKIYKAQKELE

CBP KIX Q661A = target: T10, CBP KIX Q661A (Mus musculus, UniProt P45481, Q661A); assay: Equilibrium fluorescence polarization, CBP KIX variant Q661A; format: binding; conditions: 25° C.
T10 construct: made in house; host or cells: E. coli BL21(DE3) pArg
T10 sequence (P45481 586-665 Q661A limits assumed): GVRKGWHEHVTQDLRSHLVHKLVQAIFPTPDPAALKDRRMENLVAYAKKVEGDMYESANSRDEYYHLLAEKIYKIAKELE

CBP KIX Y650A = target: T11, CBP KIX Y650A (Mus musculus, UniProt P45481, Y650A); assay: Equilibrium fluorescence polarization, CBP KIX variant Y650A; format: binding; conditions: 25° C.
T11 construct: made in house; host or cells: E. coli BL21(DE3) pArg
T11 sequence (P45481 586-665 Y650A limits assumed): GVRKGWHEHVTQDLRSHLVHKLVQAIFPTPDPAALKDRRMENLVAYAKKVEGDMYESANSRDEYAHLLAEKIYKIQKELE

CBP KIX E655A = target: T12, CBP KIX E655A (Mus musculus, UniProt P45481, E655A); assay: Equilibrium fluorescence polarization, CBP KIX variant E655A; format: binding; conditions: 25° C.
T12 construct: made in house; host or cells: E. coli BL21(DE3) pArg
T12 sequence (P45481 586-665 E655A limits assumed): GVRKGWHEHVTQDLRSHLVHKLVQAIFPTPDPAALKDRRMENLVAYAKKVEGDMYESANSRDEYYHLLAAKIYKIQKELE

[3] = target: T13, HisKIX (His-tagged CBP KIX domain) (Mus musculus, UniProt P45481); assay: Equilibrium fluorescence polarization, HisKIX binding; conditions: 25° C.
T13 construct: The CBP KIX-coding region (residues 586 to 672) of pGEX-KT KIX 10-672; made in house; host or cells: E. coli BL21(DE3) pArg
T13 sequence (P45481 586-672): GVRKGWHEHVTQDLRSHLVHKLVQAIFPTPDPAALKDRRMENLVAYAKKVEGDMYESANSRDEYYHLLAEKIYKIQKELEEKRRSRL

CBP KIX wild type = target: T14, CBP KIX wild type (Mus musculus, UniProt P45481); assay: Equilibrium fluorescence polarization, wild type CBP KIX; format: binding; conditions: 25° C.
T14 construct: made in house; host or cells: E. coli BL21(DE3) pArg
T14 sequence (P45481 586-665 limits assumed): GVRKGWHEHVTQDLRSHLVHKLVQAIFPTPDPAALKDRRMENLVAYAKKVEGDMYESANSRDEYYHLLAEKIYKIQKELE

CBP KIX I657A = target: T15, CBP KIX I657A (Mus musculus, UniProt P45481, I657A); assay: Equilibrium fluorescence polarization, CBP KIX variant I657A; format: binding; conditions: 25° C.
T15 construct: made in house; host or cells: E. coli BL21(DE3) pArg
T15 sequence (P45481 586-665 I657A limits assumed): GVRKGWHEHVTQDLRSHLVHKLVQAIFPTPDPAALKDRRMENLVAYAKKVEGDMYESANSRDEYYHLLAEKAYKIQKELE

Carbonic anhydrase II [4] = target: T2, Carbonic anhydrase II; assay: Carbonic anhydrase II binding by fluorescence emission; conditions: PBS
[5] = Circular dichroism thermal denaturation; format: physicochemical; conditions: far UV circular dichroism at 222 nm
Method: Spectra were acquired in 0.5×PBS at 25° C. using a Aviv Model 62DS spectrometer. […] Each data set represents the average of 10 scans. Spectra were background corrected but were not smoothed. (b) Temperature dependence of the CD spectrum of pP53-05. ΘMRE is in units of deg·cm^2·dmol^−1.
Circular dichroism spectra were recorded in PBS on an Aviv 202 CD Spectrometer and were background corrected but not smoothed. Wavelength scans were performed at 4° C. between 200 and 260 nm at 1 nm intervals with a recording time of five seconds at each interval. Bak (72-94), 4099, 4100, 4101, 4102 were used at concentrations of 0.028 mM, 0.0069 mM, 0.0119 mM, 0.014 mM and 0.016 mM respectively. Thermal denaturation curves were measured at 222 nm between 4-98° C. with 2° C. steps and one minute equilibration at each temperature. Peptides were used at the highest concentrations used for the wavelength scans described above. Mean residue elliptcity and percent helicity were calculated from the value at 222 nm after background correction.

Calmodulin [6] = target: T7, Calmodulin; assay: Calmodulin binding by fluorescence emission
Bcl-2 = Bcl-2 (Homo sapiens, UniProt P10415); assay: Bcl-2 binding by fluorescence emission of fluorescein-labeled peptide; conditions: read-out: Kd for binding to Bcl-2, 4° C., PBS
Sequence of Bcl-2 (P10415 1-205): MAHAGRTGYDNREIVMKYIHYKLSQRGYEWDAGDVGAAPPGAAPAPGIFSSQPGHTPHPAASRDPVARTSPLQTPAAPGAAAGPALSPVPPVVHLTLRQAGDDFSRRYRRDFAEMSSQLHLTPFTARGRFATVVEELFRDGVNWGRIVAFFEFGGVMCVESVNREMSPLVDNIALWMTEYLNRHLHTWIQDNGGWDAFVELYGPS

GST-MDM2 [7] = assay: Fluorescence polarization, affinity for GST-MDM2; format: binding, human; conditions: calmodulin, Fos, carbonic anhydrase, protein kinase A vs GST-MDM2
Method: (§4) Residues in yellow and blue stabilize the aPP hydrophobic core; those in red contribute to the binding of MDM2.
(§5) Each point represents the average of at least three trials. Error bars represent the standard error. Kd values were calculated as described in Heyduk, et al., Proc Natl Acad Sci USA 1990, 87, 1744. […] Ki was calculated using the Cheng-Prusoff equation.

GST-MDM2 [8] = target: T16, GST-MDM2 (Homo sapiens, UniProt Q00987); assay: Fluorescence polarization, affinity for GST-MDM2; format: binding; conditions: fluorescein-labeled peptide; read-out: equilibrium dissociation constant (Kd) of the peptide·GST-MDM2 complex
T16 sequence (Q00987 whole entry): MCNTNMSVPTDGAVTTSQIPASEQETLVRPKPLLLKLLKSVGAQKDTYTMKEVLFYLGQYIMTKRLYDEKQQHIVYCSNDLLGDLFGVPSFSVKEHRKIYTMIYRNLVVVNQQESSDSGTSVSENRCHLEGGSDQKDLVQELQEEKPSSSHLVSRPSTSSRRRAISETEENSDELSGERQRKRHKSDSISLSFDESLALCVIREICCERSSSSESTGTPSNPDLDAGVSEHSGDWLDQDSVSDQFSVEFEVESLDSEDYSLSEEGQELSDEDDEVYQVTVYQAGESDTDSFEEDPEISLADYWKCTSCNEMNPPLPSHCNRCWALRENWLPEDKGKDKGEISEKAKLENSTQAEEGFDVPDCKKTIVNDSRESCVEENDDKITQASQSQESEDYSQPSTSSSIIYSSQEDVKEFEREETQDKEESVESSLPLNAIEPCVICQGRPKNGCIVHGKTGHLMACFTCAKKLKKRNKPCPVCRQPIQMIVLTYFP
Method: as §4, §5

protein kinase A = protein kinase A (Homo sapiens, UniProt P17612); assay: Fluorescence polarization specificity, protein kinase A; format: binding
Method: (§2) FIG. 3—Fluorescence polarization analysis of the affinity of GST-MDM2 for selected peptides and the affinity of pP53-05 for selected proteins. […] Each point represents the average of at least three trials. Error bars represent the standard error. Kd values were calculated as described in Heyduk, et al., Proc Natl Acad Sci USA 1990, 87, 1744. […] Plot illustrates the fraction of p53AD-Flu (10 nM) bound to GST-MDM2 (400 nM) at equilibrium as a function of added pP53-05 (4.5 μM-0.18 μM). Ki was calculated using the Cheng-Prusoff equation.
(§3) The specificity of pP53-05 was evaluated by measuring its affinity for several receptors and enzymes that bind helical or hydrophobic peptides or small molecules (FIG. 3).

GST-MDM2 [9] = target: T16, GST-MDM2; assay: Competition fluorescence polarization, p53AD-Flu bound to GST-MDM2; format: binding; conditions: p53AD-Flu 10 nM, GST-MDM2 400 nM; Cheng-Prusoff
Method: as §5

carbonic anhydrase = assay: Fluorescence polarization specificity, carbonic anhydrase; format: binding
Method: as §2, §3

Calmodulin [10] = target: T7, Calmodulin; assay: Fluorescence polarization specificity, calmodulin; format: binding
Method: as §2, §3

bZIP region of Fos = target: T17, bZIP region of Fos (Homo sapiens, UniProt P01100); assay: Fluorescence polarization specificity, Fos; format: binding
T17 construct: the bZIP region of Fos, which forms dimeric complexes with other bZIP proteins
T17 sequence (P01100 137-200 limits assumed): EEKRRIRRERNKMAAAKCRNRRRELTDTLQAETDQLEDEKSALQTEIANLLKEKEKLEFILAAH
Method: as §2, §3

KIX = conditions: various techniques; isothermal titration calorimetry for KID(129-149)^P; read-out: previously reported Kd of KID^P·KIX complexes; cited from earlier work
Sequence of KIX (Q92793 587-673 limits assumed): as the sequence (P45481 586-672) above

CC[C@H](C)[C@H](NC(=O)[C@H](Cc1ccc(O)cc1)NC(=O)[C@H](Cc1ccccc1)NC(=O)[C@H](Cc1ccccc1)NC(=O)[C@H](COP(=O)(O)O)NC(=O)[C@H](CC(C)C)NC(=O)[C@H](CCCNC(=N)N)NC(=O)[C@H](CCCNC(=N)N)NC(=O)[C@@H](NC(=O)[C@@H]1CCCN1C(=O)[C@H](C)NC(=O)[C@H](CC(=O)O)NC(=O)[C@H](CC(=O)O)NC(=O)CNC(=O)[C@@H]1CCCN1C(=O)[C@H](Cc1ccc(O)cc1)NC(=O)[C@@H](NC(=O)[C@@H]1CCCN1C(=O)[C@H](CCC(N)=O)NC(=O)[C@H](CO)NC(=O)[C@@H]1CCCN1C(=O)CN)[C@@H](C)O)C(C)C)C(=O)N[C@@H](CC(C)C)C(=O)N[C@@H](CC(C)C)C(=O)N[C@@H](CC(=O)O)C(=O)N[C@@H](CC(C)C)C(=O)N[C@@H](Cc1ccc(O)cc1)C(=O)N[C@@H](CC(C)C)C(=O)N[C@@H](CC(=O)O)C(=O)N[C@@H](C)C(=O)N1CCC[C@H]1C(=O)NCC(=O)N[C@H](C(=O)N[C@@H](CSCC(=O)Nc1ccc2c(c1)C(=O)OC21c2ccc(O)cc2Oc2cc(O)ccc21)C(N)=O)C(C)C [PPKID4]
Kd (CBP KIX LL652-3AA): 2.9 ± 0.2 µM
Kd (Carbonic anhydrase II [1]): 106 ± 12 µM
Kd (CBP KIX K662A): 3.9 ± 0.3 µM
Kd (CBP KIX Y658F): 4.1 ± 0.2 µM
Kd (CBP KIX L603A): 3.4 ± 0.5 µM
Kd (CBP KIX K606A): 3.1 ± 0.2 µM
Kd (Calmodulin [2]): 51 µM and 52 µM
Kd (CBP KIX Y658A): 4.1 µM and 3.9 µM
Kd (CBP KIX I660A): 1.1 ± 0.1 µM
Kd (CBP KIX Q661A): 1.1 ± 0.1 µM
Kd (CBP KIX Y650A): 3 ± 0.3 µM
Kd (CBP KIX E655A): 0.54 ± 0.05 µM
Kd ([3]; fluorescein-labeled phosphopeptide, read-out: Kd HisKIX, phosphorylated peptide (P)): 0.515 ± 0.044 µM
Kd ([3]; fluorescein-labeled unphosphorylated peptide, read-out: Kd HisKIX, unphosphorylated peptide (U)): 12.1 ± 2.4 µM
Kd (CBP KIX wild type): 0.61 ± 0.04 µM
Kd (CBP KIX I657A): 2.7 ± 0.1 µM

CC[C@H](C)[C@H](NC(=O)[C@H](CC(C)C)NC(=O)[C@H](CC(=O)O)NC(=O)[C@H](CCC(=O)O)NC(=O)[C@@H](NC(=O)[C@@H]1CCCN1C(=O)[C@H](C)NC(=O)[C@H](CC(=O)O)NC(=O)[C@H](CC(=O)O)NC(=O)CNC(=O)[C@@H]1CCCN1C(=O)[C@H](Cc1ccc(O)cc1)NC(=O)[C@@H](NC(=O)[C@@H]1CCCN1C(=O)[C@H](CCC(N)=O)NC(=O)[C@H](CO)NC(=O)[C@@H]1CCCN1C(=O)CN)[C@@H](C)O)C(C)C)C(=O)N[C@@H](CCCNC(=N)N)C(=O)N[C@@H](Cc1ccccc1)C(=O)N[C@H](C(=O)NCC(=O)N[C@@H](CCCNC(=N)N)C(=O)N[C@@H](CC(C)C)C(=O)N[C@@H](CC(C)C)C(=O)N[C@@H](C)C(=O)N[C@@H](Cc1ccc(O)cc1)C(=O)N[C@@H](Cc1ccccc1)C(=O)NCC(=O)N[C@@H](CC(=O)O)C(=O)N[C@H](C(=O)N[C@H](C(=O)N[C@@H](CC(N)=O)C(=O)N[C@@H](CCCNC(=N)N)C(=O)N[C@@H](CCCNC(=N)N)C(N)=O)[C@@H](C)CC)[C@@H](C)O)C(C)C [p4099] (H-GPSQPTYPGDDAPVEDLIRFVGRLLAYFGDTINRR-NH2)
Kd (Carbonic anhydrase II [4]): 8.6 µM
Tm, cooperative thermal melt [5]: approximately 65 °C
Kd (Calmodulin [6]): 25 ± 4 µM
Kd (Bcl-2): 0.352 ± 0.033 µM

CC[C@H](C)[C@H](NC(=O)[C@H](CC(C)C)NC(=O)[C@H](CC(=O)O)NC(=O)[C@H](CCC(=O)O)NC(=O)[C@@H](NC(=O)[C@@H]1CCCN1C(=O)[C@H](C)NC(=O)[C@H](CC(=O)O)NC(=O)[C@H](CC(=O)O)NC(=O)CNC(=O)[C@@H]1CCCN1C(=O)[C@H](Cc1ccc(O)cc1)NC(=O)[C@@H](NC(=O)[C@@H]1CCCN1C(=O)[C@H](CCC(N)=O)NC(=O)[C@H](CO)NC(=O)[C@@H]1CCCN1C(=O)CN)[C@@H](C)O)C(C)C)C(=O)N[C@@H](CCCNC(=N)N)C(=O)N[C@@H](Cc1ccccc1)C(=O)N[C@@H](CCCCN)C(=O)N[C@@H](Cc1ccccc1)C(=O)N[C@@H](CC(C)C)C(=O)N[C@@H](CC(C)C)C(=O)N[C@@H](CCC(N)=O)C(=O)N[C@@H](Cc1c[nH]c2ccccc12)C(=O)N[C@@H](Cc1ccc(O)cc1)C(=O)N[C@@H](CC(C)C)C(=O)N[C@@H](CC(C)C)C(=O)N[C@@H](C)C(=O)N[C@@H](CC(C)C)C(N)=O [pP53-05] (H-GPSQPTYPGDDAPVEDLIRFKFLLQWYLLAL-NH2; N-terminus and C-terminus assumed)
ΔΔG between stabilities of non-target protein complexes and pP53-05·GST-MDM2 (GST-MDM2 [7]): 2.8-4.4 kcal·mol^−1
Kd (GST-MDM2 [8]): 0.099 ± 0.011 µM
Tm, cooperative thermal melt [5]: 47 °C
Kd (protein kinase A): 16 µM
Ki (GST-MDM2 [9]): 0.722 µM
Kd (carbonic anhydrase): 298 µM
Kd (Calmodulin [10]): > 275 µM
Kd (bZIP region of Fos): 42 µM

KID(129-149)^P: phosphorylated CREB KID residues 129-149, literature (SDAPGVPRIEEEKSEEETSAP; also: phosphorylated, sites not given here; UniProt P16220 129-149, looked up, fragment)
Kd (KIX): 80 µM
